Reference: paper PMC9743128, “Phenotype-based screening rediscovered benzopyran-embedded microtubule inhibitors as anti-neuroinflammatory agents by modulating the tubulin–p65 interaction” (Experimental & Molecular Medicine, 2022)

Columns and labels:
[1] = Pharmacokinetic (PK) study after IP injection; details: C57BL/6, mouse, in vivo, I.P., 5 mg/kg
[2] = target: T1, p65–α-tubulin interaction (Mus musculus, UniProt P05213+P99024); experiment: Immunoprecipitation of p65, IκB and α-tubulin; assay type: cell-based, murine; details: 1 h treatment, 10 μM
T1 construct: endogenous in cells
Experimental: After a 1-h incubation in the absence or presence of SB26019, cells were harvested and lysed for 1 h on ice with IP lysis buffer {50 mM Tris–HCl pH 8.0 (Acros; #77-86-1), 200 mM NaCl, 0.5% NP40 (Sigma; #I8896), and 1× protease inhibitor cocktail (Roche; #11873580001)}. The protein concentration was measured using a bicinchoninic acid (BCA) protein assay kit (Thermo; #23225). Then, 150 μg of the lysates were incubated with 1.5 μg of anti-p65 antibody (Abcam; ab16502), anti-IκB antibody (CST; #4814), or α-tubulin antibody (CST; #3873) at 4 °C overnight. Subsequently, the proteins of interest were precipitated using protein A and G beads (Santa Cruz; sc-2001, sc-2002). Samples were analyzed with western blotting using anti-p65, IκB, and α-tubulin primary antibodies.
To understand the inhibitory mechanism of p65 nuclear translocation by SB26019, the expression levels of p65, IκB, and tubulin monomers were monitored upon SB26019 treatment in murine macrophage cells. […] Additionally, nuclear translocation of p65 was inhibited by SB26019 treatment despite an increase in phospho-IκB and a decrease in total IκB (Fig. 3e). […] Consequently, IκB is released from p65 and degraded by the proteasome. […] To test this hypothesis, we monitored protein‒protein interactions among p65, IκB, and tubulin with immunoprecipitation. […]

C57BL/6 mice = experiment: LPS neuroinflammation model; assay type: in vivo; details: 2 or 5 mg/kg IP daily for 4 days, LPS 5 mg/kg on Day 2
Experimental: All experiments were carried out with 10-week-old female C57BL/6 mice (20–25 g). The animals were divided into six experimental groups of three mice in each experiment: Group 1, treated with vehicle; Group 2, treated with SB26019 {2 mg/kg body weight (mpk)}; Group 3, treated with SB26019 (5 mpk); Group 4, treated with LPS and vehicle; Group 5, treated with LPS and SB26019 (2 mpk); and Group 6, treated with LPS and SB26019 (5 mpk). SB26019 (2 or 5 mpk) or vehicle {distilled water containing 5% DMSO and 40% polyethylene glycol 400 (TCI; N0433)} was administered with IP injection daily for 4 days. Five mpk of LPS (Sigma; L2880) in PBS was administered by IP injection on Day 2 for a single challenge. All mice were sacrificed on Day 5.
Mice were anesthetized with a mixture of alfaxalone and xylazine (5:1 ratio) and transcardially perfused with cold PBS. Mouse brains were harvested and fixed using 10% NBF (Sigma; HT501128) for 2 h. After washing with PBS for 30 min three times, fixed brains were embedded in OCT compound (Leica; #3801480) for frozen coronal sectioning at a thickness of 7 μm. […]
The perfused brains were minced with a 10 T scalpel blade. […] Microglia in the interphase between 70% and 37% Percoll solution was transferred and washed with HBSS media. mRNA was extracted from the microglia and analyzed with qPCR. […]

[3] = Cell viability assay (EZ-Cytox); details: mouse, BV-2 microglial cells
Experimental: (§1) A total of 40,000 cells were seeded on a 96-well plate and incubated for 18 h. After 6-, 12- and 24-h compound treatment, 10 μL of EZ-Cytox solution (Dogen; EZ-BULK150) was added to the 96-well plate. After 30 min, the absorbance at 455 nm was measured using a microplate reader (BioTek; Synergy).
(§2) (n=6). Data are presented as the mean ± SD.

BV-2 cells = experiment: Cell viability assay (EZ-Cytox); details: BV-2, various time points
Experimental: as §1, §2

T1 sequence (P05213 whole entry): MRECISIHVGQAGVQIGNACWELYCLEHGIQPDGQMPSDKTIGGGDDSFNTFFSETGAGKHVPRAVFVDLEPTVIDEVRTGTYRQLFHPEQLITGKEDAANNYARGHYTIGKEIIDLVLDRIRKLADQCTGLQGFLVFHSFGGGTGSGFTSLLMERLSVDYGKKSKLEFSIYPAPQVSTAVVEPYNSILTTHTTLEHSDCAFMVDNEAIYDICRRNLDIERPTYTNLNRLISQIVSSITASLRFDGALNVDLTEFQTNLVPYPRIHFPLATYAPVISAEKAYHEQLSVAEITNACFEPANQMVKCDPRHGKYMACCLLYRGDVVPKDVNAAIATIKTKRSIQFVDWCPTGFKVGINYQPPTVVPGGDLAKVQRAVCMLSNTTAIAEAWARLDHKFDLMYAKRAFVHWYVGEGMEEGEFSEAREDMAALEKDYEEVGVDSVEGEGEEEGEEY
T1 sequence (P99024 whole entry): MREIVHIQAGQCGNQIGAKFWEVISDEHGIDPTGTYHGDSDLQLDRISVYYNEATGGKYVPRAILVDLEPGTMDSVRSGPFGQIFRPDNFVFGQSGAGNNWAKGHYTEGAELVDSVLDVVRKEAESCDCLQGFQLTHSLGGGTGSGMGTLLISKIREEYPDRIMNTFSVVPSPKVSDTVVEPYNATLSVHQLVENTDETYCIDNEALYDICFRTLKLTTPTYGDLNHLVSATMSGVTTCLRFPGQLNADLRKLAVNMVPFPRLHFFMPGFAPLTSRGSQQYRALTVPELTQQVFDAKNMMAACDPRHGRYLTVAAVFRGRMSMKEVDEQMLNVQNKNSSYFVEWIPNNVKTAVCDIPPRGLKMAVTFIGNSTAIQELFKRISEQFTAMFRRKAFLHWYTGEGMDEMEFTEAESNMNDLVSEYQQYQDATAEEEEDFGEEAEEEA

COc1ccc2c(c1O)OC(C)(C)C=C2c1cccc2c1oc1ccccc12 [Compound 8]
AUC(0-inf) [1]: 1790 ± 310 ng·h/mL | AUC(0-t) [1]: 1770 ± 300 ng·h/mL | Cmax [1]: 1200 ± 260 ng/mL | Tmax [1]: 0.17 h | half-life [1]: 3.57 ± 0.62 h | Interaction between p65 and α-tubulin [2]: increased | Microglial activation (Iba-1-positive region of the brain) (C57BL/6 mice): efficiently regulated microglial activation in all brain regions in a dose-dependent manner | Transcription levels of cytokines and chemokines in brain microglia (qPCR) (C57BL/6 mice): efficiently inhibited the LPS-mediated upregulation of cytokines and chemokines | viability at 10 µM [3]: 108% | Cytotoxicity (cell viability curve) (BV-2 cells): without considerable cytotoxicity
